Measured values from US8192962B2, “Processes for detecting toxic substances” (Daikin Industries, Ltd., priority 2001, dated 2012).

Tested on: Metabolism protein genes
Assay: DNA chip mRNA expression in yeast, metabolism protein genes (Table 7)
Type: cell-based, Saccharomyces cerevisiae S288C
How it was run: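 Ratios compare mRNA levels in stressed and control S. cerevisiae. Each toxicant was applied for two hours to log-phase cultures at 25° C. at a sub-lethal, growth-inhibiting level; fluorescent cDNA (Cy3- or Cy5-dUTP) was hybridized to a genome-wide yeast chip for over 12 h at 65° C.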

N#Cc1c(Cl)c(Cl)c(Cl)c(C#N)c1Cl [(9), 2,4,5,6-tetrachloro-1,3-benzenedicarbonitrile]
level of expressed mRNA in the presence/in the absence of chemical substance (yeast gene YJL121C): 0.1 | The level of expressed mRNA in the presence of chemical substance/The level of expressed mRNA in the absence of chemical substance (yeast gene YJL172W): 0.7 | The level of expressed mRNA in the presence of chemical substance/The level of expressed mRNA in the absence of chemical substance (yeast gene YJL219W): 4.0 | The level of expressed mRNA in the presence of chemical substance/The level of expressed mRNA in the absence of chemical substance (yeast gene YJL221C): 2.7 | level of expressed mRNA in the presence/in the absence of chemical substance (yeast gene YJR077C): 0.4 | The level of expressed mRNA in the presence of chemical substance/The level of expressed mRNA in the absence of chemical substance (yeast gene YJR137C): 9.0 | level of expressed mRNA in the presence/in the absence of chemical substance (yeast gene YJR143C): 0.1 | The level of expressed mRNA in the presence of chemical substance/The level of expressed mRNA in the absence of chemical substance (yeast gene YJR148W): 0.7 | The level of expressed mRNA in the presence of chemical substance/The level of expressed mRNA in the absence of chemical substance (yeast gene YJR155W): 38.2 | The level of expressed mRNA in the presence of chemical substance/The level of expressed mRNA in the absence of chemical substance (yeast gene YKL035W): 0.8 | level of expressed mRNA in the presence/in the absence of chemical substance (yeast gene YKL060C): 0.3 | The level of expressed mRNA in the presence of chemical substance/The level of expressed mRNA in the absence of chemical substance (yeast gene YKL091C): 2.3 | The level of expressed mRNA in the presence of chemical substance/The level of expressed mRNA in the absence of chemical substance (yeast gene YKL104C): 1.4 | level of expressed mRNA in the presence/in the absence of chemical substance (yeast gene YKL148C): 1.7 | The level of expressed mRNA in the presence of chemical substance/The level of expressed mRNA in the absence of chemical substance (yeast gene YKL152C): 0.9 | level of expressed mRNA in the presence/in the absence of chemical substance (yeast gene YKL157W): 1.7 | The level of expressed mRNA in the presence of chemical substance/The level of expressed mRNA in the absence of chemical substance (yeast gene YKL213C): 4.8 | The level of expressed mRNA in the presence of chemical substance/The level of expressed mRNA in the absence of chemical substance (yeast gene YKL215C): 1.3 | level of expressed mRNA in the presence/in the absence of chemical substance (yeast gene YKR034W): 0.5 | The level of expressed mRNA in the presence of chemical substance/The level of expressed mRNA in the absence of chemical substance (yeast gene YKR039W): 1.9 | The level of expressed mRNA in the presence of chemical substance/The level of expressed mRNA in the absence of chemical substance (yeast gene YLL058W): 3.5 | level of expressed mRNA in the presence/in the absence of chemical substance (yeast gene YLR006C): 1.1 | level of expressed mRNA in the presence/in the absence of chemical substance (yeast gene YLR058C): 0.2 | level of expressed mRNA in the presence/in the absence of chemical substance (yeast gene YLR081W): 0.1 | level of expressed mRNA in the presence/in the absence of chemical substance (yeast gene YLR089C): 0.5 | The level of expressed mRNA in the presence of chemical substance/The level of expressed mRNA in the absence of chemical substance (yeast gene YLR142W): 3.1 | The level of expressed mRNA in the presence of chemical substance/The level of expressed mRNA in the absence of chemical substance (yeast gene YLR164W): 5.3 | The level of expressed mRNA in the presence of chemical substance/The level of expressed mRNA in the absence of chemical substance (yeast gene YLR180W): 0.8 | The level of expressed mRNA in the presence of chemical substance/The level of expressed mRNA in the absence of chemical substance (yeast gene YLR260W): 2.6 | The level of expressed mRNA in the presence of chemical substance/The level of expressed mRNA in the absence of chemical substance (yeast gene YLR273C): 2.8 | level of expressed mRNA in the presence/in the absence of chemical substance (yeast gene YLR284C): 0.9 | The level of expressed mRNA in the presence of chemical substance/The level of expressed mRNA in the absence of chemical substance (yeast gene YLR299W): 4.9 | The level of expressed mRNA in the presence of chemical substance/The level of expressed mRNA in the absence of chemical substance (yeast gene YLR300W): 0.0 | level of expressed mRNA in the presence/in the absence of chemical substance (yeast gene YLR304C): 0.1 | The level of expressed mRNA in the presence of chemical substance/The level of expressed mRNA in the absence of chemical substance (yeast gene YLR307W): 0.6 | The level of expressed mRNA in the presence of chemical substance/The level of expressed mRNA in the absence of chemical substance (yeast gene YLR348C): 2.1 | level of expressed mRNA in the presence/in the absence of chemical substance (yeast gene YLR354C): 0.4 | level of expressed mRNA in the presence/in the absence of chemical substance (yeast gene YML022W): 0.3 | The level of expressed mRNA in the presence of chemical substance/The level of expressed mRNA in the absence of chemical substance (yeast gene YML042W): 3.8 | The level of expressed mRNA in the presence of chemical substance/The level of expressed mRNA in the absence of chemical substance (yeast gene YML054C): 4.1 | The level of expressed mRNA in the presence of chemical substance/The level of expressed mRNA in the absence of chemical substance (yeast gene YML070W): 4.5 | The level of expressed mRNA in the presence of chemical substance/The level of expressed mRNA in the absence of chemical substance (yeast gene YML100W): 1.7 | The level of expressed mRNA in the presence of chemical substance/The level of expressed mRNA in the absence of chemical substance (yeast gene YML110C): 2.7 | The level of expressed mRNA in the presence of chemical substance/The level of expressed mRNA in the absence of chemical substance (yeast gene YMR008C): 0.3 | level of expressed mRNA in the presence/in the absence of chemical substance (yeast gene YMR015C): 0.1 | The level of expressed mRNA in the presence of chemical substance/The level of expressed mRNA in the absence of chemical substance (yeast gene YMR020W): 2.3 | level of expressed mRNA in the presence/in the absence of chemical substance (yeast gene YMR083W): 0.4 | The level of expressed mRNA in the presence of chemical substance/The level of expressed mRNA in the absence of chemical substance (yeast gene YMR105C): 0.6 | The level of expressed mRNA in the presence of chemical substance/The level of expressed mRNA in the absence of chemical substance (yeast gene YMR189W): 0.7 | level of expressed mRNA in the presence/in the absence of chemical substance (yeast gene YMR205C): 0.3 | level of expressed mRNA in the presence/in the absence of chemical substance (yeast gene YMR261C): 1.6 | The level of expressed mRNA in the presence of chemical substance/The level of expressed mRNA in the absence of chemical substance (yeast gene YMR271C): 8.0 | The level of expressed mRNA in the presence of chemical substance/The level of expressed mRNA in the absence of chemical substance (yeast gene YMR296C): 0.4 | level of expressed mRNA in the presence/in the absence of chemical substance (yeast gene YMR323W): 0.5 | The level of expressed mRNA in the presence of chemical substance/The level of expressed mRNA in the absence of chemical substance (yeast gene YNL012W): 3.3 | level of expressed mRNA in the presence/in the absence of chemical substance (yeast gene YNL025C): 1.1 | The level of expressed mRNA in the presence of chemical substance/The level of expressed mRNA in the absence of chemical substance (yeast gene YNL037C): 0.6 | The level of expressed mRNA in the presence of chemical substance/The level of expressed mRNA in the absence of chemical substance (yeast gene YNL045W): 1.3 | The level of expressed mRNA in the presence of chemical substance/The level of expressed mRNA in the absence of chemical substance (yeast gene YNL104C): 1.1 | The level of expressed mRNA in the presence of chemical substance/The level of expressed mRNA in the absence of chemical substance (yeast gene YNL106C): 0.7 | The level of expressed mRNA in the presence of chemical substance/The level of expressed mRNA in the absence of chemical substance (yeast gene YNL169C): 1.1 | The level of expressed mRNA in the presence of chemical substance/The level of expressed mRNA in the absence of chemical substance (yeast gene YNL231C): 2.2 | The level of expressed mRNA in the presence of chemical substance/The level of expressed mRNA in the absence of chemical substance (yeast gene YNL264C): 3.3 | The level of expressed mRNA in the presence of chemical substance/The level of expressed mRNA in the absence of chemical substance (yeast gene YNL322C): 0.7 | The level of expressed mRNA in the presence of chemical substance/The level of expressed mRNA in the absence of chemical substance (yeast gene YNL331C): 42.6 | The level of expressed mRNA in the presence of chemical substance/The level of expressed mRNA in the absence of chemical substance (yeast gene YNL332W): 3.3 | The level of expressed mRNA in the presence of chemical substance/The level of expressed mRNA in the absence of chemical substance (yeast gene YNR002C): 3.9 | The level of expressed mRNA in the presence of chemical substance/The level of expressed mRNA in the absence of chemical substance (yeast gene YNR019W): 1.8 | The level of expressed mRNA in the presence of chemical substance/The level of expressed mRNA in the absence of chemical substance (yeast gene YNR033W): 3.6 | The level of expressed mRNA in the presence of chemical substance/The level of expressed mRNA in the absence of chemical substance (yeast gene YNR059W): 1.8 | The level of expressed mRNA in the presence of chemical substance/The level of expressed mRNA in the absence of chemical substance (yeast gene YNR071C): 3.1 | The level of expressed mRNA in the presence of chemical substance/The level of expressed mRNA in the absence of chemical substance (yeast gene YOL058W): 0.1 | level of expressed mRNA in the presence/in the absence of chemical substance (yeast gene YOL086C): 0.1 | The level of expressed mRNA in the presence of chemical substance/The level of expressed mRNA in the absence of chemical substance (yeast gene YOL126C): 0.8 | The level of expressed mRNA in the presence of chemical substance/The level of expressed mRNA in the absence of chemical substance (yeast gene YOL143C): 0.8 | The level of expressed mRNA in the presence of chemical substance/The level of expressed mRNA in the absence of chemical substance (yeast gene YOL153C): 2.5 | level of expressed mRNA in the presence/in the absence of chemical substance (yeast gene YOL156W): 2.3 | The level of expressed mRNA in the presence of chemical substance/The level of expressed mRNA in the absence of chemical substance (yeast gene YOL165C): 46.9 | level of expressed mRNA in the presence/in the absence of chemical substance (yeast gene YOR002W): 0.8 | level of expressed mRNA in the presence/in the absence of chemical substance (yeast gene YOR085W): 0.5 | The level of expressed mRNA in the presence of chemical substance/The level of expressed mRNA in the absence of chemical substance (yeast gene YOR099W): 0.6 | level of expressed mRNA in the presence/in the absence of chemical substance (yeast gene YOR108W): 0.4 | level of expressed mRNA in the presence/in the absence of chemical substance (yeast gene YOR128C): 0.3 | The level of expressed mRNA in the presence of chemical substance/The level of expressed mRNA in the absence of chemical substance (yeast gene YOR130C): 2.0 | The level of expressed mRNA in the presence of chemical substance/The level of expressed mRNA in the absence of chemical substance (yeast gene YOR136W): 0.3 | level of expressed mRNA in the presence/in the absence of chemical substance (yeast gene YOR142W): 1.1 | level of expressed mRNA in the presence/in the absence of chemical substance (yeast gene YOR176W): 1.0 | level of expressed mRNA in the presence/in the absence of chemical substance (yeast gene YOR178C): 0.2 | The level of expressed mRNA in the presence of chemical substance/The level of expressed mRNA in the absence of chemical substance (yeast gene YOR226C): 1.3 | The level of expressed mRNA in the presence of chemical substance/The level of expressed mRNA in the absence of chemical substance (yeast gene YOR336W): 1.7 | The level of expressed mRNA in the presence of chemical substance/The level of expressed mRNA in the absence of chemical substance (yeast gene YOR347C): 0.5 | The level of expressed mRNA in the presence of chemical substance/The level of expressed mRNA in the absence of chemical substance (yeast gene YOR377W): 3.8 | The level of expressed mRNA in the presence of chemical substance/The level of expressed mRNA in the absence of chemical substance (yeast gene YPL017C): 3.0 | level of expressed mRNA in the presence/in the absence of chemical substance (yeast gene YPL028W): 1.2 | level of expressed mRNA in the presence/in the absence of chemical substance (yeast gene YPL057C): 0.4 | level of expressed mRNA in the presence/in the absence of chemical substance (yeast gene YPL135W): 0.5 | The level of expressed mRNA in the presence of chemical substance/The level of expressed mRNA in the absence of chemical substance (yeast gene YPR026W): 0.9 | level of expressed mRNA in the presence/in the absence of chemical substance (yeast gene YPR113W): 0.4 | The level of expressed mRNA in the presence of chemical substance/The level of expressed mRNA in the absence of chemical substance (yeast gene YPR167C): 76.6 | level of expressed mRNA in the presence/in the absence of chemical substance (yeast gene YPR183W): 0.9
